Assay results reported in patent US20220024921A1, “1,3,4-OXADIAZOLONE COMPOUND AND PHARMACEUTICAL” (NIPPON SHINYAKU CO., LTD., priority 2018, published 2022).
Where a name gives a salt, the structure may show the parent alone.

What was measured:
[1] = molecular target: T1, PIM2 serine/threonine kinase (Homo sapiens, UniProt Q9P1W9); experiment: PIM2 serine/threonine kinase inhibitory effect; format: biochemical; settings: PIM2 serine/threonine kinase activity; ATP 2 μM; 30° C., 30 minutes
T1 construct: purchased Carna Bioscience, Inc
Description: (§1) Each test substance was prepared to 10 mM with dimethylsulfoxide (DMSO), and further diluted with DMSO so as to have concentrations of 1000, 300, 100, 30, 10, 3, 1, 0.3, 0.1, 0.03, 0.01, and 0.001 μM. Moreover, each dilution was further diluted 33.3-fold with an assay buffer to prepare a test substance solution. The composition of the assay buffer was 50 mM HEPES (pH 7.0), 0.02% NaN3, 0.01% Bovine Serum Albumin, 0.1 mM Orthovanadate, 1 mM Dithiothreitol, and 5 mM MgCl2.
(§2) 5 μL of each test substance solution was added to 384-well plates (n=2), and then 2.5 μL of a substrate solution (substrate 3-biotin (Cisbio Bioassays SAS), final concentration in the reaction solution: 0.5 μM) and 2.5 μL of an ATP solution (in the cases of PIM1, 2, 3, the final concentrations in the reaction solutions were 40, 2, and 10 μM, respectively) were added, 5 μL of each of PIM1, 2, 3 serine/threonine kinase solutions (Carna Bioscience, Inc., the final concentrations in the reaction solutions were 0.15, 1.6, and 0.25 μg/ml, respectively) was finally added, and the mixture was reacted at 30° C. for 30 minutes. The test substance concentrations in the reaction solutions are 10000, 3000, 1000, 300, 100, 30, 10, 3, 1, 0.3, 0.1, and 0.01 nM.
(§3) Thereafter, 15 μL of each detection solution (62.5 nM Streptavidin-XL665 (Cisbio Bioassays SAS), […] STK antibody-Cryptate (Cisbio Bioassays SAS), 50 mM HEPES (pH 7.0), 0.8 M KF, 0.1% Bovine Serum Albumin, 20 mM ethylenediaminetetraacetic acid) was added to each well. After stirring, the mixture was reacted at 30° C. for 1 hour. Absorbance (OD620, OD665) at 620 and 665 nm was measured with a microplate reader (SpectraMax M5e, Molecular Devices, LLC).
(§4) Non-linear regression analysis was performed by an SAS system (SAS Institute Inc.) using the ratio (OD665/OD620) of the measured absorbance to calculate a test substance concentration (IC50) that inhibits PIM1 serine/threonine kinase activity by 50%.
(§5) For the compounds with the following Example numbers, in addition to the above PIM1 serine/threonine kinase activity (IC50), test substance concentrations (IC50) that inhibit PIM2 serine/threonine kinase activity and PIM3 serine/threonine kinase activity by 50% were calculated.

[2] = molecular target: PIM3 transgenic cells (Ba/F3) (Homo sapiens, UniProt Q86V86); experiment: Proliferation inhibitory effect on PIM3 transgenic cells; format: cell-based, mouse; settings: proliferation inhibition, 72 hours, Cell Counting Kit-8, read-out: PIM3 IC50
From the text: (§6) Human PIM1, 2, and 3 genes were inserted into the multi-cloning sites of retrovirus expression vectors pMYs-IRES-GFP, respectively, to prepare gene transfer vectors. Then, each gene transfer vector was introduced into packaging cells PLAT-E derived from a human fetal kidney cell line in the logarithmic growth phase, using a transfection reagent (FuGENE6, Promega Corporation). Since the culture supernatant of PLAT-E after gene transfer contained virus particles for gene transfer, the culture supernatant was collected and used as a medium for gene transfer. The medium for gene transfer was added to a plate coated with RetroNectin, and the plate was incubated to attach the virus particles to the plate. Then, a mouse pro-B cell line Ba/F3 in the logarithmic growth phase was seeded on the plate and infected with the virus to prepare PIM1, 2, or 3 transgenic cells that proliferate in a PIM 1, 2, or 3-dependent manner. The expression of PIM1, 2, or 3 protein in each cell was confirmed by Western blotting.
(§7) Each test substance was prepared to 10 mM with dimethylsulfoxide (DMSO), and diluted with DMSO so as to have concentrations of 3000, 1000, 300, 100, 30, 10, 3, and 1 μM. Moreover, each dilution was further diluted 10-fold with distilled water to prepare a test substance solution.
(§8) PIM1, 2, 3-expressing cells were seeded on a 96-well plate, and each test substance solution prepared the next day was added such that final concentrations were 10000, 3000, 1000, 300, 100, 30, 10, 3, and 1 nM. 72 hours after the addition, 10 μL of Cell Counting Kit-8 (DOJINDO LABORATORIES) was added to each well. After incubation for 1 to 4 hours, absorbance OD450 at 450 nm was measured. In addition, absorption OD650 at 650 nm as a reference wavelength was measured.
(§9) OD450-OD650 for each condition was calculated, and then the inhibition rates when OD450-OD650 of negative control (DMSO only) and OD450-OD650 of Blank (without cells) were set to 0% and 100%, respectively, were calculated. Then, non-linear regression analysis was performed for logarithmic dose and inhibition rate using a two-parameter logistic model to estimate IC50 values.
(§10) For the compounds with the following Example numbers, in addition to the above proliferation inhibitory effect on PIM1 transgenic cells, the proliferation inhibitory effect on PIM2 transgenic cells and the proliferation inhibitory effect on PIM3 transgenic cells were calculated as IC50.

[3] = system: graft-versus-host disease model CB6F1 mice; experiment: Lymphocyte proliferation inhibitory effect using graft-versus-host disease model animals (splenomegaly formation); format: in vivo; settings: Mus musculus, 240 h, single dose 100 mg/kg, oral, twice a day for 10 days, GVHD model CB6F1 mice, read-out: Inhibition rate (%) (splenomegaly formation)
[4] = molecular target: T2, PIM3 serine/threonine kinase (Homo sapiens, UniProt Q86V86); experiment: PIM3 serine/threonine kinase inhibitory effect; format: biochemical; settings: PIM3 serine/threonine kinase activity; ATP 10 μM; 30° C., 30 minutes
T2 construct: purchased Carna Bioscience, Inc
Description: as §1, §2, §3, §4, §5

[5] = molecular target: PIM1 transgenic cells (Ba/F3) (Homo sapiens, UniProt P11309); experiment: Proliferation inhibitory effect on PIM1 transgenic cells; format: cell-based, mouse; settings: proliferation inhibition, 72 hours, Cell Counting Kit-8, read-out: PIM1 IC50
In short: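 Mouse Ba/F3 pro-B cells were retrovirally transduced with human PIM1 so that their proliferation depends on PIM1. Cells were treated with compound at 1–10000 nM final for 72 h, then read by CCK-8 (OD450−OD650). Inhibition was set against DMSO (0%) and no-cell blank (100%), and IC50 was obtained by two-parameter logistic regression.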

[6] = system: graft-versus-host disease model CB6F1 mice; experiment: Lymphocyte proliferation inhibitory effect using graft-versus-host disease model animals (splenomegaly formation); format: in vivo; settings: Mus musculus, 240 h, oral, twice a day for 10 days, GVHD model CB6F1 mice, read-out: Inhibition rate (%) (splenomegaly formation); for inhibition in vivo at 3 mg/kg: single dose 3 mg/kg; for inhibition in vivo at 10 mg/kg: single dose 10 mg/kg
Description: BALB/c mice (8-week-aged female) were euthanized, and then the spleen was removed from each mouse. Then, hemolysis treatment was performed to isolate spleen cells. The obtained spleen cells were intravenously transplanted into CB6F1 mice (8-week-aged female), which are C57BL/6 and BALB/c F1 mice, to prepare a model, and splenomegaly was induced. For transplantation, spleen cells for 1.2 BALB/c mouse were used for one CB6F1 mouse.
Each test substance shown in Table 64 was weighed and dissolved in a 0.5% methyl cellulose solution, thereby preparing test substance solutions of 0.3 to 10 mg/mL.
A vehicle (0.5% methyl cellulose solution) or test substance was orally administered to each CB6F1 mouse after transplantation at a dose of 3 to 50 mg/kg in terms of body weight twice a day for 10 days from the day after transplantation. The mouse was euthanized on the 11th day from the start of administration, then the spleen was removed therefrom, and the wet weight of the spleen was measured. For each of CB6F1 mice that had not undergone transplantation as a control group, the wet weight of the spleen was also measured.
The splenomegaly formation inhibition rate when the spleen weights of the mice to which the vehicle was administered after transplantation and the mice on which transplantation had not been performed were 0% and 100%, respectively, was calculated.

[7] = molecular target: PIM2 transgenic cells (Ba/F3) (Homo sapiens, UniProt Q9P1W9); experiment: Proliferation inhibitory effect on PIM2 transgenic cells; format: cell-based, mouse; settings: proliferation inhibition, 72 hours, Cell Counting Kit-8, read-out: PIM2 IC50
From the text: as §6, §7, §8, §9, §10

[8] = molecular target: T3, PIM1 serine/threonine kinase (Homo sapiens, UniProt P11309); experiment: PIM1 serine/threonine kinase inhibitory effect; format: biochemical; settings: PIM1 serine/threonine kinase activity; ATP 40 μM; 30° C., 30 minutes
T3 construct: purchased Carna Bioscience, Inc
In short: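 Compounds were tested in duplicate from 0.01 to 10000 nM final against PIM1 kinase (0.15 μg/ml). The reaction ran for 30 minutes at 30° C with 40 μM ATP and 0.5 μM biotin-tagged substrate at pH 7.0. Phosphorylation was read by time-resolved FRET (OD665/OD620) after 1 h; IC50 by non-linear fit.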

Sequence of PIM2 transgenic cells (Ba/F3) (Q9P1W9 whole entry, change not shown): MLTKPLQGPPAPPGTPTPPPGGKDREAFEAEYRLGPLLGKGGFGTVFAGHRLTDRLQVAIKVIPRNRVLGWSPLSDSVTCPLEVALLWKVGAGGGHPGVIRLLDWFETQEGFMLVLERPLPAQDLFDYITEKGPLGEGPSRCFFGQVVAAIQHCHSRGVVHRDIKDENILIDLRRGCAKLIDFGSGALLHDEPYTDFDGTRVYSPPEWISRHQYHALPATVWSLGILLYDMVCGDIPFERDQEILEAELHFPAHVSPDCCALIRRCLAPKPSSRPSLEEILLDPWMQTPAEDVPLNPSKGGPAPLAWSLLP
T3 sequence (P11309 whole entry): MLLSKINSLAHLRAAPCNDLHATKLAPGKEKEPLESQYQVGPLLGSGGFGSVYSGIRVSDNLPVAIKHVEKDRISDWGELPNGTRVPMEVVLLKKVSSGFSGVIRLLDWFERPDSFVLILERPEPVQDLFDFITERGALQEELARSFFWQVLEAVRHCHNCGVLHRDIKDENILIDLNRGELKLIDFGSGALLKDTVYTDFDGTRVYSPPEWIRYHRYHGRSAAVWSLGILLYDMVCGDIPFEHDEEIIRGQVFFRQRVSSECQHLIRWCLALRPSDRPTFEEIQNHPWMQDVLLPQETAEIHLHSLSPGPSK
Sequence of PIM1 transgenic cells (Ba/F3) (P11309 whole entry, stated change not applied): as the sequence (P11309 whole entry) above
T1 sequence (Q9P1W9 whole entry): as the sequence (Q9P1W9 whole entry, change not shown) above

`C[C@H](Nc1cc(-c2n[nH]c(=O)o2)ccc1C(F)(F)F)C1CCNCC1` [Example 58, 5-[3-{[(1S)-1-(piperidin-4-yl)ethyl]amino}-4-(trifluoromethyl)phenyl]-1,3,4-oxadiazol-2(3H)-one hydrochloride] gave an IC50 [1] of 18 nM, a GI50 [2] of 570 nM and an inhibition in vivo at 100 mg/kg [3] of 39.8%. The IC50 [4] was 16 nM, the GI50 [5] was 33 nM and the inhibition in vivo at 25 mg/kg ([6]; single dose 25 mg/kg) was 19%. For the same compound, the inhibition in vivo at 50 mg/kg ([6]; single dose 50 mg/kg) was 41.6%, the GI50 [7] was 3600 nM and the IC50 [8] was 2 nM.
With `C[C@@H]1CNCC[C@@H]1[C@H](C)Nc1cc(-c2n[nH]c(=O)o2)cc(F)c1OC(F)(F)F` [Example 219, 5-[3-fluoro-5-({(1S)-1-[(3S,4S)-3-methylpiperidin-4-yl]ethyl}amino)-4-(trifluoromethoxy)phenyl]-1,3,4-oxadiazol-2(3H)-one] the GI50 [2] was 40 nM, the GI50 [5] was 11 nM and the inhibition in vivo at 3 mg/kg [6] was 27.7%. The inhibition in vivo at 10 mg/kg [6] was 33.8%, the GI50 [7] was 1100 nM and the IC50 [8] was 1.8 nM.
`C[C@H](Nc1cc(-c2n[nH]c(=O)o2)cc(F)c1C(F)(F)F)[C@H]1CCNC[C@H]1F` [Example 223, 5-[3-fluoro-5-({(1S)-1-[(3S,4R)-3-fluoropiperidin-4-yl]ethyl}amino)-4-(trifluoromethyl)phenyl]-1,3,4-oxadiazol-2(3H)-one hydrochloride] was tested, and the GI50 [2] was 59 nM, the GI50 [5] was 11 nM and the inhibition in vivo at 3 mg/kg [6] was 34.1%. It also gave an inhibition in vivo at 10 mg/kg [6] of 36.8%, a GI50 [7] of 290 nM and an IC50 [8] of 1.6 nM.
Compound `C[C@H](Nc1cc(-c2n[nH]c(=O)o2)cc(F)c1OC(F)(F)F)[C@H]1CCNC[C@H]1F` [Example 224, 5-[3-fluoro-5-({(1S)-1-[(3S,4R)-3-fluoropiperidin-4-yl]ethyl}amino)-4-(trifluoromethoxy)phenyl]-1,3,4-oxadiazol-2(3H)-one] has a GI50 [2] of 35 nM, a GI50 [5] of 7.1 nM and an inhibition in vivo at 3 mg/kg [6] of 22.8%. It also gave an inhibition in vivo at 10 mg/kg [6] of 39.1%, a GI50 [7] of 510 nM and an IC50 [8] of 0.8 nM.
Work on `CC[C@@H]1CNCC[C@@H]1[C@H](C)Nc1cc(-c2n[nH]c(=O)o2)cc(F)c1C(F)(F)F` [Example 225, 5-[3-({(1S)-1-[(3S,4S)-3-ethylpiperidin-4-yl]ethyl}amino)-5-fluoro-4-(trifluoromethyl)phenyl]-1,3,4-oxadiazol-2(3H)-one] yielded a GI50 [2] of 51 nM, a GI50 [5] of 7.6 nM and an inhibition in vivo at 3 mg/kg [6] of 18.9%. The inhibition in vivo at 10 mg/kg [6] was 32.3%, the GI50 [7] was 390 nM and the IC50 [8] was 1.1 nM.
